Reference: patent publication US9732065B2, “Cyclic aminomethyl pyrimidine derivative” (Sumitomo Dainippon Pharma Co., Ltd., priority 2013, dated 2017)

Key:
[1] = target: T1, Human dopamine D4 receptor (Homo sapiens, UniProt P21917); assay: Agonistic/antagonistic activity in G protein dependent pathway (aequorin intracellular calcium luminescence), D4; type: cell-based; design: expressed in transfected cells; host or cells: CHO-K1 or HEK293 cells; details: for inhibition at 0.1 µM / inhibition at 1 µM: against 10 μM endogenous ligand, read-out: Inhibitory activity on each receptor (%): D4; for Emax at 0.1 µM / Emax at 1 µM: read-out: Maximal activity on each receptor (%): D4
T1 sequence (P21917 1-419): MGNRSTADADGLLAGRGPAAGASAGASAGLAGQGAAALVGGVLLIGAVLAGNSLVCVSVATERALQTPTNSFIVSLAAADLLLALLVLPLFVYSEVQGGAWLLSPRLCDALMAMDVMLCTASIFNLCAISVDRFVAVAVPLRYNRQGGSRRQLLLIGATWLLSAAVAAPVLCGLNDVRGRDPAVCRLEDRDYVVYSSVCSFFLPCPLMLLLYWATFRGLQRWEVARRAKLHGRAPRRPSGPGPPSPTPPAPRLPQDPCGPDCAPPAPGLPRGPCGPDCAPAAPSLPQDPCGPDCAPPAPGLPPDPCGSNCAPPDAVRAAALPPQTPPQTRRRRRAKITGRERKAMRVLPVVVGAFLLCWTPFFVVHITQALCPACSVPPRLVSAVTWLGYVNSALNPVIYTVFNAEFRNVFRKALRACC
Description: (§1) Plasmids encoding each receptor, aequorin and Gα16 were prepared, and the plasmids were transfected into CHO cells (Chinese Hamster Ovary cells) or HEK293 cells (Human Embryonic Kidney 293 cells) to prepare expressing cell lines.
(§2) The agonistic or antagonistic activity of the present compound in the G protein dependent pathway was evaluated on the basis of intracellular calcium levels as follows. CHO-K1 or HEK293 cell lines transfected with D2, D4, α1A, or α2A receptor genes were seeded in a 384-well plate, and incubated in a CO2 incubator at 37° C. for 24 hours, and then a solution of the present compound in DMSO was added into cells preloaded with coelenterazine to measure the change in luminescent signals with a FDSS (Hamamatsu Photonics K.K.). […] The agonistic activity of the present compound was calculated according to the measured luminescent signals, as the maximal activity (Emax) of the present compound. On the other hand, the antagonistic activity of the present compound was calculated according to the luminescent signals in wells with 10 μM of an endogenous ligand alone defined as 100%, as the inhibitory activity of the present compound to an endogenous ligand. EC50 value was calculated as the concentration of the present compound required to achieve a 50% response, and IC50 was calculated as the concentration of the present compound required to achieve a 50% inhibition of the Emax of an endogenous ligand.

[2] = target: T1, Human dopamine D4 receptor; assay: G protein independent pathway: β-arrestin recruit ability (PathHunter β-galactosidase); type: cell-based; design: expressed in transfected cells; details: β-arrestin recruitment, 90 minutes; 10 μM dopamine = 100%
Description: The activation of the G protein independent pathway was evaluated on the basis of the recruit ability of β-arrestin as follows. Cell lines transfected with D4 receptor genes were seeded in a 384-well plate, and incubated in a CO2 incubator at 37° C. for 24 hours, a solution of the present compound in DMSO was added into the cells, and then the cells were left at 37° C. for 90 minutes. Buffer containing β-galactosidase reaction substance (PathHunter Cell Assay Buffer, DiscoverRx) was added thereto, and luminescent signals in the wells were measured with a FDSS (Hamamatsu Photonics K.K.). […] The maximal activity (Emax) of the present compound was calculated according to the measured luminescent signals. EC50 value was calculated as the concentration of the present compound required to achieve a 50 response.

[3] = Brain penetration study in rat; type: in vivo; details: brain and plasma, unbound brain-to-plasma drug concentration ratio
Description: In this study, the brain penetration of the present compound can be evaluated. Specifically, a 7-week-old SD-type or WKY-type rat received the subcutaneous administration of a solution of the present compound in saline or the oral administration of a suspension of the present compound in methylcellulose. Plasma and brain were collected from the treated rat 0.5 hour, 1 hour or 2 hours after the administration, and then the levels of the present compound in the plasma and the brain were measured by a LC-MS method.
The protein binding ratios of the present compound to the plasma and the brain were measured by an equilibrium dialysis method.
The levels of the present compound in the plasma and the brain as well as the plasma and brain protein binding ratios are applied to the following formula, and thus Kp,uu,brain (Unbound brain-to-plasma drug concentration ratio) can be calculated. Kp,uu,brain=(level of the present compound in the brain×(100−brain protein binding ratio (%))/100)/(level of the present compound in the plasma×(100−plasma protein binding ratio (%))/100)

[4] = PK study in rat (bioavailability); type: in vivo; details: plasma, oral vs intravenous administration
Description: In this study, the pharmacokinetics of the present compound can be evaluated. Specifically, a 7-week-old SD-type or WKY-type rat received the intravenous administration of a solution of the present compound in saline or the oral administration of a suspension of the present compound in carboxymethylcellulose or methylcellulose. Blood was collected from the rat at each time below.
Intravenous administration: 5 minutes, 15 minutes, 30 minutes, 1 hour, 2 hours, 4 hours, 6 hours, and 24 hours after administration
Oral administration: 15 minutes, 30 minutes, 1 hour, 2 hours, 4 hours, 6 hours, and 24 hours after administration
Plasma was collected from the blood, the levels of the present compound in the plasma were measured by a LC-MS method, and then the pharmacokinetic parameters were calculated on the basis of the level changes.

[5] = target: T2, human adrenergic α1A receptor (Homo sapiens, UniProt P35348); assay: Agonistic/antagonistic activity in G protein dependent pathway (aequorin intracellular calcium luminescence), α1A; type: cell-based; details: for Maximal activity on each receptor (%): α1A: 10 μM adrenaline = 100%; for inhibition at 0.1 µM / inhibition at 1 µM: against 10 μM endogenous ligand, read-out: Inhibitory activity on each receptor (%): α1A
T2 construct: expressed in transfected cells; host or cells: CHO-K1 or HEK293 cells
T2 sequence (P35348 1-466): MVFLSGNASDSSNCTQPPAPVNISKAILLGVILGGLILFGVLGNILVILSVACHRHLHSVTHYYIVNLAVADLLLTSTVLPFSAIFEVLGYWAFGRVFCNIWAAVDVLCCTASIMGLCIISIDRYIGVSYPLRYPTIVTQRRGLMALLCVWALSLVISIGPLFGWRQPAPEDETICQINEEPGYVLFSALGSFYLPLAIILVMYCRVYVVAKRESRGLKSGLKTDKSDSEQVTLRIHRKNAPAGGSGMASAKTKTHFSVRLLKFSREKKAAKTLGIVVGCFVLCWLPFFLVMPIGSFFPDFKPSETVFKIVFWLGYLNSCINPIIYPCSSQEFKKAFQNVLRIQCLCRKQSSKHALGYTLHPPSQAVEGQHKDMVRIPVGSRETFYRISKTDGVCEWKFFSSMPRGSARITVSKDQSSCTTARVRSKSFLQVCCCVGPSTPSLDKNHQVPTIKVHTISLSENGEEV
Description: as §1, §2

| SMILES | inhibition at 0.1 µM [1] [%] | inhibition at 1 µM [1] [%] | Emax at 0.1 µM [1] [%] | Emax at 1 µM [1] [%] | Maximal activity on D4 receptor (%) [2] [%] | Kp uu [3] | bioavailability [4] [%] | Maximal activity on each receptor (%): α1A ([5]; 0.1 μM) [%] | inhibition at 0.1 µM ([5]; 0.1 μM) [%] | Maximal activity on each receptor (%): α1A ([5]; 1 μM) [%] | inhibition at 1 µM ([5]; 1 μM) [%] |
| --- | --- | --- | --- | --- | --- | --- | --- | --- | --- | --- | --- |
| Cc1ncc(CN2CCC(c3ccccn3)CC2)c(C)n1 [Example 44, 2,4-Dimethyl-5-[4-(pyridin-2-yl)piperidin-1-ylmethyl]pyrimidine] | 58 | 78 | 27 | 64 | 6 | 0.8 | 27.6 | 0.04 | 2.7 | 0.01 | 2.6 |
| Cc1ncc(CN2CCC(c3cccnc3)CC2)c(C)n1 [Example 45, 2,4-Dimethyl-5-[4-(pyridin-3-yl)piperidin-1-ylmethyl]pyrimidine] | 72 | 87 | 20 | 35 | 9 | 0.8 | 21.6 | 0.03 | -5.6 | 0.08 | -0.73 |
| Nc1ncc(CN2CCC(c3cncc(F)c3)CC2)cn1 [Example 46, 5-[4-(5-Fluoropyridin-3-yl)piperidin-1-ylmethyl]pyrimidin-2-amine] | 61 | 85 | 14 | 40 | 11 | 1.8 | 92.2 | 0.08 | -6.4 | 0.23 | -17 |
